The values that follow are results of earlier work, collected in patent publication US5905084A, “5-HTIF -agonists effective in treating migraine” (priority 1997, dated 1999).

Molecules are shown by their SMILES.

One series has as its system neurogenic inflammation. To be noted: Neurology, 43(suppl. 3), S16-S20 (1993).
Series [1] has as its system exploratory behavior in arthritic animals. The following applies: Larsen and Arnt (1985).

For the compound `CNS(=O)(=O)Cc1ccc2[nH]cc(CCN(C)C)c2c1.O=C(O)CCC(=O)O` [Compound I, 3-[2-(dimethylamino)ethyl]-N-methyl-1H-indole-5-methanesulfonamide butane-1,4-dioate (1:1)], in the series with neurogenic inflammation, the neurogenic inflammation blocked entry is recorded as “blocked”.

Turning to `CN(C)CCCC1(c2ccc(F)cc2)OCc2cc(C#N)ccc21` (centres unmarked) [citalopram], the exploratory behavior result in series [1] was “improve exploratory behavior”.
